Experimental data reported in ChEMBL document CHEMBL1671722, “Comparative in vitro activity profiles of novel bis-indole antibacterials against gram-positive and gram-negative clinical isolates” (Antimicrob Agents Chemother, 2010).
≈ marks a conversion by molar mass, not a printed value.

Legend:
Assay type in all cases: functional
[1] = system: Enterococcus faecium; assay: Antimicrobial activity against vancomycin-resistant Enterococcus faecium by broth microdilution method
[2] = system: Enterococcus faecalis; assay: Antimicrobial activity against vancomycin-susceptible Enterococcus faecalis by broth microdilution method
[3] = system: Staphylococcus epidermidis; assay: Antimicrobial activity against methicillin-resistant Staphylococcus epidermidis by broth microdilution method
[4] = system: Enterococcus faecium; assay: Antimicrobial activity against vancomycin-susceptible Enterococcus faecium by broth microdilution method
[5] = system: Streptococcus pneumoniae; assay: Antimicrobial activity against penicillin-intermediate Streptococcus pneumoniae by broth microdilution method
[6] = system: Streptococcus pneumoniae; assay: Antimicrobial activity against penicillin-resistant Streptococcus pneumoniae by broth microdilution method
[7] = system: Streptococcus pneumoniae; assay: Antimicrobial activity against penicillin-susceptible Streptococcus pneumoniae by broth microdilution method
[8] = system: Staphylococcus aureus; assay: Antimicrobial activity against methicillin-resistant Staphylococcus aureus by broth microdilution method
[9] = system: Staphylococcus epidermidis; assay: Antimicrobial activity against methicillin-susceptible Staphylococcus epidermidis by broth microdilution method
[10] = system: Enterococcus faecalis; assay: Antimicrobial activity against vancomycin-resistant Enterococcus faecalis by broth microdilution method
[11] = system: Staphylococcus aureus; assay: Antimicrobial activity against methicillin-susceptible Staphylococcus aureus by broth microdilution method
[12] = system: Streptococcus agalactiae; assay: Antimicrobial activity against Streptococcus agalactiae by broth microdilution method
[13] = system: Haemophilus influenzae; assay: Antimicrobial activity against Haemophilus influenzae by broth microdilution method
[14] = system: Serratia marcescens; assay: Antimicrobial activity against Serratia marcescens by broth microdilution method
[15] = system: Acinetobacter baumannii; assay: Antimicrobial activity against multiple dug-resistant Acinetobacter baumannii by broth microdilution method
[16] = system: Burkholderia cepacia; assay: Antimicrobial activity against Burkholderia cepacia by broth microdilution method
[17] = system: Klebsiella pneumoniae; assay: Antimicrobial activity against ESBL-production Klebsiella pneumoniae by broth microdilution method
[18] = system: Proteus mirabilis; assay: Antimicrobial activity against Proteus mirabilis by broth microdilution method
[19] = system: Klebsiella pneumoniae; assay: Antimicrobial activity against Klebsiella pneumoniae by broth microdilution method
[20] = system: Acinetobacter baumannii; assay: Antimicrobial activity against Acinetobacter baumannii by broth microdilution method
[21] = system: Clostridioides difficile; assay: Antimicrobial activity against Clostridium difficile by broth microdilution method
[22] = system: Pseudomonas aeruginosa; assay: Antimicrobial activity against Pseudomonas aeruginosa by broth microdilution method
[23] = system: Escherichia coli; assay: Antimicrobial activity against Escherichia coli by broth microdilution method

## CC(=O)NC[C@H]1CN(c2ccc(N3CCOCC3)c(F)c2)C(=O)O1 [LINEZOLID]
[1]
  MIC50: 2 µg/mL (≈ 5.93 µM)
  MIC90: 2 µg/mL (≈ 5.93 µM)
[2]
  MIC50: 2 µg/mL (≈ 5.93 µM)
  MIC90: 2 µg/mL (≈ 5.93 µM)
[3]
  MIC: 1 µg/mL (≈ 2.96 µM)
  MIC50: 1 µg/mL (≈ 2.96 µM)
  MIC90: 2 µg/mL (≈ 5.93 µM)
[4]
  MIC: 2 µg/mL (≈ 5.93 µM)
  MIC50: 2 µg/mL (≈ 5.93 µM)
  MIC90: 4 µg/mL (≈ 11.9 µM)
[5]
  MIC50: 1 µg/mL (≈ 2.96 µM)
  MIC90: 1 µg/mL (≈ 2.96 µM)
[6]
  MIC50: 1 µg/mL (≈ 2.96 µM)
  MIC90: 1 µg/mL (≈ 2.96 µM)
[7]
  MIC50: 1 µg/mL (≈ 2.96 µM)
  MIC90: 2 µg/mL (≈ 5.93 µM)
[8]
  MIC50: 2 µg/mL (≈ 5.93 µM)
  MIC90: 4 µg/mL (≈ 11.9 µM)
[9]
  MIC50: 1 µg/mL (≈ 2.96 µM)
  MIC90: 2 µg/mL (≈ 5.93 µM)
[10]
  MIC50: 1 µg/mL (≈ 2.96 µM)
  MIC90: 1 µg/mL (≈ 2.96 µM)
[11]
  MIC50: 2 µg/mL (≈ 5.93 µM)
  MIC90: 4 µg/mL (≈ 11.9 µM)
[12]
  MIC: 1 µg/mL (≈ 2.96 µM)
  MIC50: 1 µg/mL (≈ 2.96 µM)
  MIC90: 2 µg/mL (≈ 5.93 µM)

## CN[C@H](CC(C)C)C(=O)N[C@H]1C(=O)N[C@@H](CC(N)=O)C(=O)N[C@H]2C(=O)N[C@H]3C(=O)N[C@H](C(=O)N[C@H](C(=O)O)c4cc(O)cc(O)c4-c4cc3ccc4O)[C@H](O)c3ccc(c(Cl)c3)Oc3cc2cc(c3O[C@@H]2O[C@H](CO)[C@@H](O)[C@H](O)[C@H]2O[C@H]2C[C@](C)(N)[C@H](O)[C@H](C)O2)Oc2ccc(cc2Cl)[C@H]1O [VANCOMYCIN]
[1]
  MIC50: > 64 µg/mL
  MIC90: > 64 µg/mL
[2]
  MIC50: 1 µg/mL (≈ 0.69 µM)
  MIC90: 2 µg/mL (≈ 1.38 µM)
[3]
  MIC50: 2 µg/mL (≈ 1.38 µM)
  MIC90: 2 µg/mL (≈ 1.38 µM)
[4]
  MIC50: 0.5 µg/mL (≈ 0.345 µM)
  MIC90: 1 µg/mL (≈ 0.69 µM)
[5]
  MIC: 0.25 µg/mL (≈ 0.173 µM)
  MIC50: 0.25 µg/mL (≈ 0.173 µM)
  MIC90: 0.25 µg/mL (≈ 0.173 µM)
[6]
  MIC: 0.25 µg/mL (≈ 0.173 µM)
  MIC50: 0.25 µg/mL (≈ 0.173 µM)
  MIC90: 0.25 µg/mL (≈ 0.173 µM)
[7]
  MIC50: 0.25 µg/mL (≈ 0.173 µM)
  MIC90: 0.25 µg/mL (≈ 0.173 µM)
[8]
  MIC50: 0.5 µg/mL (≈ 0.345 µM)
  MIC90: 1 µg/mL (≈ 0.69 µM)
[9]
  MIC90: 2 µg/mL (≈ 1.38 µM)
[10]
  MIC: > 64 µg/mL
  MIC50: > 64 µg/mL
  MIC90: > 64 µg/mL
[11]
  MIC50: 0.5 µg/mL (≈ 0.345 µM)
  MIC90: 1 µg/mL (≈ 0.69 µM)
[12]
  MIC50: 1 µg/mL (≈ 0.69 µM)
  MIC90: 1 µg/mL (≈ 0.69 µM)

## CO/N=C(\C(=O)N[C@@H]1C(=O)N2C(C(=O)O)=C(COC(C)=O)CS[C@H]12)c1csc(N)n1 [CEFOTAXIME]
[13]
  MIC50: 1 µg/mL (≈ 2.2 µM)
  MIC90: > 4 µg/mL

## CCCCCCCCCC(=O)N[C@@H](Cc1c[nH]c2ccccc12)C(=O)N[C@H](CC(N)=O)C(=O)N[C@@H](CC(=O)O)C(=O)N[C@@H]1C(=O)NCC(=O)N[C@@H](CCCN)C(=O)N[C@@H](CC(=O)O)C(=O)N[C@H](C)C(=O)N[C@@H](CC(=O)O)C(=O)NCC(=O)N[C@H](CO)C(=O)N[C@@H]([C@H](C)CC(=O)O)C(=O)N[C@@H](CC(=O)c2ccccc2N)C(=O)O[C@@H]1C
[1]
  MIC50: 2 µg/mL (≈ 1.23 µM)
  MIC90: 4 µg/mL (≈ 2.47 µM)
[2]
  MIC50: 1 µg/mL (≈ 0.617 µM)
  MIC90: 2 µg/mL (≈ 1.23 µM)
[3]
  MIC: 0.5 µg/mL (≈ 0.309 µM)
  MIC50: 0.5 µg/mL (≈ 0.309 µM)
  MIC90: 1 µg/mL (≈ 0.617 µM)
[4]
  MIC50: 4 µg/mL (≈ 2.47 µM)
  MIC90: 4 µg/mL (≈ 2.47 µM)
[5]
  MIC50: 0.06 µg/mL (≈ 0.037 µM)
  MIC90: 0.25 µg/mL (≈ 0.154 µM)
[6]
  MIC50: 0.06 µg/mL (≈ 0.037 µM)
  MIC90: 0.12 µg/mL (≈ 0.074 µM)
[7]
  MIC50: 0.06 µg/mL (≈ 0.037 µM)
  MIC90: 0.25 µg/mL (≈ 0.154 µM)
[8]
  MIC50: 0.25 µg/mL (≈ 0.154 µM)
  MIC90: 0.25 µg/mL (≈ 0.154 µM)
[9]
  MIC: 0.5 µg/mL (≈ 0.309 µM)
  MIC50: 0.5 µg/mL (≈ 0.309 µM)
  MIC90: 1 µg/mL (≈ 0.617 µM)
[10]
  MIC50: 0.5 µg/mL (≈ 0.309 µM)
  MIC90: 2 µg/mL (≈ 1.23 µM)
[11]
  MIC50: 0.5 µg/mL (≈ 0.309 µM)
  MIC90: 0.5 µg/mL (≈ 0.309 µM)
[12]
  MIC50: 0.5 µg/mL (≈ 0.309 µM)
  MIC90: 2 µg/mL (≈ 1.23 µM)

## C[C@@H](O)[C@H]1C(=O)N2C(C(=O)O)=C(SCCNC=N)C[C@H]12 [IMIPENEM ANHYDROUS]
[1]
  MIC: 8 µg/mL (≈ 26.7 µM)
  MIC50: 8 µg/mL (≈ 26.7 µM)
  MIC90: 8 µg/mL (≈ 26.7 µM)
[2]
  MIC50: 1 µg/mL (≈ 3.34 µM)
  MIC90: 4 µg/mL (≈ 13.4 µM)
[3]
  MIC50: 8 µg/mL (≈ 26.7 µM)
  MIC90: > 8 µg/mL
[4]
  MIC50: > 8 µg/mL
  MIC90: > 8 µg/mL
[14]
  MIC50: 4 µg/mL (≈ 13.4 µM)
  MIC90: > 8 µg/mL
[5]
  MIC50: 0.03 µg/mL (≈ 0.1 µM)
  MIC90: 0.25 µg/mL (≈ 0.835 µM)
[6]
  MIC50: 0.25 µg/mL (≈ 0.835 µM)
  MIC90: 1 µg/mL (≈ 3.34 µM)
[7]
  MIC: < 0.008 µg/mL
  MIC50: < 0.008 µg/mL
  MIC90: < 0.008 µg/mL
[15]
  MIC50: 4 µg/mL (≈ 13.4 µM)
[16]
  MIC: 4 µg/mL (≈ 13.4 µM)
  MIC50: 4 µg/mL (≈ 13.4 µM)
  MIC90: > 8 µg/mL
[17]
  MIC50: 0.25 µg/mL (≈ 0.835 µM)
  MIC90: 1 µg/mL (≈ 3.34 µM)
[8]
  MIC50: 1 µg/mL (≈ 3.34 µM)
  MIC90: 8 µg/mL (≈ 26.7 µM)
[9]
  MIC: 0.015 µg/mL (≈ 0.0501 µM)
  MIC50: 0.015 µg/mL (≈ 0.0501 µM)
  MIC90: 0.015 µg/mL (≈ 0.0501 µM)
[10]
  MIC50: 2 µg/mL (≈ 6.68 µM)
  MIC90: 2 µg/mL (≈ 6.68 µM)
[18]
  MIC50: 4 µg/mL (≈ 13.4 µM)
  MIC90: 8 µg/mL (≈ 26.7 µM)
[11]
  MIC50: 0.015 µg/mL (≈ 0.0501 µM)
  MIC90: 0.03 µg/mL (≈ 0.1 µM)
[19]
  MIC50: 0.12 µg/mL (≈ 0.401 µM)
  MIC90: 1 µg/mL (≈ 3.34 µM)
[20]
  MIC90: > 32 µg/mL
[21]
  MIC50: 4 µg/mL (≈ 13.4 µM)
  MIC90: 8 µg/mL (≈ 26.7 µM)
[22]
  MIC: 0.05 µg/mL (≈ 0.167 µM)
  MIC50: 1 µg/mL (≈ 3.34 µM)
  MIC90: > 8 µg/mL
[12]
  MIC: 0.06 µg/mL (≈ 0.2 µM)
  MIC50: 0.06 µg/mL (≈ 0.2 µM)
  MIC90: 0.06 µg/mL (≈ 0.2 µM)
[23]
  MIC50: 0.25 µg/mL (≈ 0.835 µM)
  MIC90: 0.25 µg/mL (≈ 0.835 µM)

## C[C@H]1COc2c(N3CCN(C)CC3)c(F)cc3c(=O)c(C(=O)O)cn1c23.C[C@H]1COc2c(N3CCN(C)CC3)c(F)cc3c(=O)c(C(=O)O)cn1c23.O [LEVOFLOXACIN]
[13]
  MIC: 0.08 µg/mL
  MIC50: 0.015 µg/mL
  MIC90: 0.06 µg/mL
